Test results from US10759826B2, “15β-substituted estrone derivatives as selective inhibitors of 17β-hydroxysteroid-dehydrogenases, method of preparation and use thereof” (USTAV ORGANICKE CHEMIE A BIOCHEMIE AV CR, V.V.I., priority 2016, dated 2020).

Assays:
[1] = target: T1, human 17βHSD type 1 (Homo sapiens, UniProt P14061); test: Inhibition of recombinant 17βHSD type 1, tritium-labeled substrate conversion; format: biochemical; details: for inhibition at 0.1 µM: 0.1 μmol · l^−1 test substance; for inhibition at 0.1 µM / inhibition at 1 µM: read-out: % of inhibition of human 17βHSD1; for inhibition at 1 µM: 1 μmol · l^−1 test substance; for IC50: read-out: 17βHSD1 IC50
T1 construct: made in house; expressing system suspended in buffer, not purified
T1 sequence (P14061 1-328): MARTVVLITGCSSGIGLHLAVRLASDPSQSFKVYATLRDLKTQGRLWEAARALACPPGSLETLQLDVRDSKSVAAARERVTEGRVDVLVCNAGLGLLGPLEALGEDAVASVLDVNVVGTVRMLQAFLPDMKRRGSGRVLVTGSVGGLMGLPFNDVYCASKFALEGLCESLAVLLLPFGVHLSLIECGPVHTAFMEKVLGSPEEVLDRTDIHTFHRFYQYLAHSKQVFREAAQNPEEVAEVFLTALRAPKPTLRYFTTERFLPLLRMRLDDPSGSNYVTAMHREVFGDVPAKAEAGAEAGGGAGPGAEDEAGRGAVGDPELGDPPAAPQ
Description: (§1) The inhibitory activity of the test substances was determined for individual isoenzymes from the 17βHSD family, specifically these were the types 1, 2, 3, 4, 5 and 7. Escherichia coli and mammalian cells expression systems were used for recombinant expression of individual isozymes of human 17βHSD. Only in the case of 17HSD5 the enzyme was partially purified and supernatant obtained by centrifugation of the bacterial lysate was used for testing. Systems expressing specific 17βHSD type were suspended in a reaction buffer and incubated with tritium-labeled substrates and respective cofactors at 37° C. in two parallel tests: the control arrangement (DMSO without the inhibitor) and the test arrangement (DMSO with the inhibitor). DMSO serves as a negative control in this case. After 20-30% of the substrate was converted by the activity of the enzyme to the product in a control test, both tests were terminated. Substrate and product from the test arrangement were isolated by SPE (solid phase extraction), and then separated by reverse phase HPLC. Substrate conversion was determined by integration of the signals of the substrate and product, and was expressed in %. For the purposes of the subsequent calculation of enzyme inhibition, the conversion of the control test was designated as 0% inhibition. All tests were performed in triplicates. IC50 values were subsequently determined by a standard method using the “One Ligand Binding” model of SigmaPlot kinetics module (Schustera et. al. J. Ster. Biochem. Mol. Biol. 2011, 125, 148; Möller et. al. Biioorg. Med. Chem. Lett. 2009, 19, 6740; Möller et. al. PLoS One, 2010, 5, 6, e10969).

[2] = target: T2, human 17βHSD type 5 (Homo sapiens, UniProt P42330); test: Inhibition of recombinant 17βHSD type 5, tritium-labeled substrate conversion; format: biochemical; details: 1 μmol · l^−1 test substance
T2 construct: made in house; host or cells: bacteria (Escherichia coli); supernatant of the lysate
T2 sequence (P42330 1-323): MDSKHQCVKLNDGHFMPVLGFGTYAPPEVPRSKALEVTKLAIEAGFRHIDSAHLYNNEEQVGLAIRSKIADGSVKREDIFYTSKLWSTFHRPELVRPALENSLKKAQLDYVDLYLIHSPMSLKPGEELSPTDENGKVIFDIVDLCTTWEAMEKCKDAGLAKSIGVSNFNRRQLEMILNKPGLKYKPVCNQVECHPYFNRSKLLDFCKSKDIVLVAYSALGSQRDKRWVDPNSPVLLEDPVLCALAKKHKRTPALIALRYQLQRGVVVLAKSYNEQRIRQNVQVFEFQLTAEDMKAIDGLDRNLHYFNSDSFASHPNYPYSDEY
Description: as §1

[3] = target: T3, estrogen receptor α (ERα) (Homo sapiens, UniProt P03372); test: ERα luciferase reporter assay in U2OS cells; format: cell-based; details: for ER antagonism in words: testing range 10 μmol·l^−1 to 1 nmol·l^−1
T3 construct: expressed in transfected cells
T3 sequence (P03372 1-595): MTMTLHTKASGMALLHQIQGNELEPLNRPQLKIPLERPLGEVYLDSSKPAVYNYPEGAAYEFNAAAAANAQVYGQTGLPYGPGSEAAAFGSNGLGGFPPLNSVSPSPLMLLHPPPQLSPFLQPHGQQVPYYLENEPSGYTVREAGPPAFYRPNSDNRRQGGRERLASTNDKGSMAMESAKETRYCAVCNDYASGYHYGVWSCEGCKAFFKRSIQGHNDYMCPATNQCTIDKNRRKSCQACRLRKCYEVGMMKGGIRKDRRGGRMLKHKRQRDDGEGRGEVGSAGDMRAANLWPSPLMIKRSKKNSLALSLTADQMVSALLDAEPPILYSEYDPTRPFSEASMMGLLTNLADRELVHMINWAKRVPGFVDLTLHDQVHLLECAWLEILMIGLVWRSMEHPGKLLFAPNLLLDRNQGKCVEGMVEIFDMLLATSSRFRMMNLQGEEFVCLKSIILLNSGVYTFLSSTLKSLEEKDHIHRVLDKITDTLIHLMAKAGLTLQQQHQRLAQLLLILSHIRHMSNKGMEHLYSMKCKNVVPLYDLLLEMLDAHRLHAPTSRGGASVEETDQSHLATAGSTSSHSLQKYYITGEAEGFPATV

[4] = system: CEM; test: MTT cytotoxicity assay, CEM; format: cell-based; details: Homo sapiens, CCRF-CEM
Source text: (§2) Compounds 5, 6, 7, 9, 14 and 15 were used for evaluation of antitumor activity. MTT cytotoxicity assay was used in vitro on cell lines derived from normal tissues and from tumors. Specifically, these were the K562 line (human myeloid leukemia), K562-Tax (human myeloid leukemia resistant to taxol and overexpressing PgP protein for multidrug resistance), CEM (T-lymphoblastic leukemia), CEM-DNR bulk (T-lymphoblastic leukemia resistant doxorubicin, lacking the expression of the target gene for inhibitors of topoisomerase II alpha), A549 line (human lung adenocarcinoma), HCT116p53 wt (human colon cancer), HCT116p53−/− (human colon cancer, mutant p53), U2OS line of human osteosarcoma and two fibroblast lines MRC5 and BJ as examples of non-tumor cells. Expression characteristics, profiles of susceptibility to classical antitumor drugs and methodology of the MTT cytotoxicity assay were repeatedly published (e.g. Noskova et al. Neoplasma 2002, 49, 418; S̆arek et. al. J. Med. Chem. 2003, 46, 25, 5402).

[5] = system: CEM-DNR-bulk; test: MTT cytotoxicity assay, CEM-DNR-bulk; format: cell-based
Source text: as §2

[6] = system: K562; test: MTT cytotoxicity assay, K562; format: cell-based; details: Homo sapiens
Source text: as §2

[7] = system: K562-Tax; test: MTT cytotoxicity assay, K562-Tax; format: cell-based; details: Homo sapiens
Source text: as §2

[8] = system: A549; test: MTT cytotoxicity assay, A549; format: cell-based; details: Homo sapiens
Source text: as §2

[9] = system: HCT116p53 wt; test: MTT cytotoxicity assay, HCT116p53 wt; format: cell-based; details: Homo sapiens
Source text: as §2

[10] = system: HCT116p53-/-; test: MTT cytotoxicity assay, HCT116p53-/-; format: cell-based; details: Homo sapiens
Source text: as §2

[11] = system: U2OS; test: MTT cytotoxicity assay, U2OS; format: cell-based; details: Homo sapiens
Source text: as §2

[12] = system: BJ; test: MTT cytotoxicity assay, BJ fibroblasts; format: cell-based; details: Homo sapiens, non-tumor fibroblasts
Source text: as §2

[13] = system: MRCS; test: MTT cytotoxicity assay, MRC5 fibroblasts; format: cell-based; details: Homo sapiens, Fibroblast, non-tumor fibroblasts
Source text: as §2

[14] = target: T4, human 17βHSD1 (Homo sapiens, UniProt P14061); test: 17βHSD inhibition in CHO cells transfected with human 17βHSD1, E1 in supernatant; format: cell-based; set-up: expressed in transfected cells; details: 10 μmol·l^−1
T4 sequence (P14061 1-328): T1 sequence (P14061 1-328)
Description: (§3) For this experiment, non-cytotoxic concentrations of estrone derivative (10 μmol·l^−1) were used. E1 levels were determined by an immuno-enzymatic assay.

[15] = target: T4, human 17βHSD1; test: 17βHSD inhibition in MCF-7 cells transfected with human 17βHSD1, E1 in supernatant; format: cell-based; set-up: expressed in transfected cells; host or cells: MCF-7; details: 10 μmol·l^−1
Description: as §3

Compound | inhibition at 0.1 µM [1] [%] | inhibition at 1 µM [1] [%] | % of inhibition of human 17βHSD5 [2] [%] | melting point [°C] | IC50 [1] [µM] | other results
C[C@]12CC[C@@H]3c4ccc(O)cc4CC[C@H]3[C@@H]1[C@H](CCc1c(F)c(F)c(F)c(F)c1F)CC2=O [Compound 17, 15β-(2,3,4,5,6-Pentafluorophenethyl)-3-hydroxy-estra-1,3,5(10)-trien-17-one] | 56 | 90 | 31. | 151 | – | –
C[C@]12CC[C@@H]3c4ccc(O)cc4CC[C@H]3[C@@H]1[C@H](CCc1ccc3ccccc3c1)CC2=O [Compound 8, 3-Hydroxy-15β-(2-(naphtalen-2-yl)ethyl)-estra-1,3,5(10)-trien-17-one] | 77 | 92 | 76 | 201 | 0.018 | –
COc1ccc(CC[C@@H]2CC(=O)[C@@]3(C)CC[C@@H]4c5ccc(O)cc5CC[C@H]4[C@H]23)cc1OC [Compound 11, 3-Hydroxy-15β-(3,4-dimethoxyphenethyl)-estra-1,3,5(10)-trien-17-one] | 36 | 67 | – | – | – | –
C[C@]12CC[C@@H]3c4ccc(O)cc4CC[C@H]3[C@@H]1[C@H](CCc1ccc(C(F)(F)F)cc1)CC2=O [Compound 4, 15β-(4-(Trifluoromethyl)phenethyl)-3-hydroxy-estra-1,3,5(10)-trien-17-one] | 68 | 91 | 89 | 168 | 0.042 | ER antagonism in words [3]: ER antagonist
C[C@]12CC[C@@H]3c4ccc(O)cc4CC[C@H]3[C@@H]1[C@H](CCc1ccccc1)CC2=O [Compound 3, 15β-Phenethyl-3-hydroxy-estra-1,3,5(10)-trien-17-one] | 66 | 83 | 60 | – | 0.05 | ER antagonism in words [3]: ER antagonist
COc1cccc(CC[C@@H]2CC(=O)[C@@]3(C)CC[C@@H]4c5ccc(O)cc5CC[C@H]4[C@H]23)c1 [Compound 10, 3-Hydroxy-15β-(3-methoxyphenethyl)-estra-1,3,5(10)-trien-17-one] | 72 | 87 | – | 178 | – | –
C=C[C@@H]1CC(=O)[C@@]2(C)CC[C@@H]3c4ccc(O)cc4CC[C@H]3[C@H]12 [Compound 2a, 3-Hydroxy-15β-vinyl-estra-1,3,5(10)-trien-17-one] | 79 | 95 | 7 | 162 | 0.017 | isoenzyme selectivity in words ([1]; among 17βHSD types 1, 2, 3, 4, 5, 7): inhibits exclusively the 17βHSD1 isoenzyme; estrogenic effect in words [3]: partial estrogenicity
C[C@]12CC[C@@H]3c4ccc(O)cc4CC[C@H]3[C@@H]1[C@H](CCc1ccc(O)cc1)CC2=O [Compound 14, 15β-(4-Hydroxyphenethyl)-3-hydroxy-estra-1,3,5(10)-trien-17-one] | 72 | 97 | 42 | – | – | IC50 [4]: 25.8 µM; IC50 [5]: 30.8 µM; IC50 [6]: 22.6 µM; IC50 [7]: 18.9 µM; IC50 [8]: 41.3 µM; IC50 [9]: 28.2 µM; IC50 [10]: 32.6 µM; IC50 [11]: 44.6 µM; IC50 [12]: ≥ 50 µM; IC50 [13]: 50 µM; E1 in supernatant, CHO ([14]; 8 hr.): 3179 pg/mL; E1 in supernatant, CHO ([14]; 24 hr.): 1054 pg/mL; E1 in supernatant, MCF-7 ([15]; 8 hr.): 4298 pg/mL; E1 in supernatant, MCF-7 ([15]; 24 hr.): 2626 pg/mL
C[C@]12CC[C@@H]3c4ccc(O)cc4CC[C@H]3[C@@H]1[C@H](CCc1cc(F)c(F)c(F)c1)CC2=O [Compound 16, 15β-(3,4,5-Trifluorophenethyl)-3-hydroxy-estra-1,3,5(10)-trien-17-one] | 67 | 95 | 79 | 182 | 0.036 | –
CC(C)(C)Oc1ccc(CC[C@@H]2CC(=O)[C@@]3(C)CC[C@@H]4c5ccc(O)cc5CC[C@H]4[C@H]23)cc1 [Compound 13, 15β-(4-t-Butoxyphenethyl)-3-hydroxy-estra-1,3,5(10)-trien-17-one] | 62 | 80 | – | – | – | –
